The nature of data set [1]: Solubility / precipitation of IV formulations on pH adjustment. It counts as physicochemical. Conditions: pH lowered with hydrochloric acid solution. How it is done:
Summary of Experiments. […] The pH of the compounding solution would later be adjusted by sodium hydroxide solution to the target pH. […] Only samples containing 20% SBECD (samples S-1.1 and S-2.1) were fully soluble at the desired pH.
Sample Preparation. To a 20 mL scintillation vial was added 60 mg of the racemate of the free base of the compound of Formula I and a magnetic stir bar. 3 mL of formulation solution (either 0%, 10% or 20% w/w SBECD in H2O) was added. The pH of the mixture was adjusted to approximately pH 3 by the addition of 1N HCl. Upon full dissolution (with magnetic stirring, sonication if necessary), the IV formulation was adjusted to the final pH by the addition of 1N NaOH solution. The IV formulation was filtered through a syringe filter, separated into 3 samples of approximately equal volume, and the samples were transferred to a stability chamber at 2-5° C., 25° C., or 40° C. At the specified time point the sample was removed from the stability chamber, an aliquot of the IV formulation was removed and diluted to 0.5 mg/mL with H2O for HPLC analysis.
As noted above, significant precipitation of compound D1 occurred upon adjusting the IV formulation to the final pH level of 5 or 6 for IV formulations containing <20% SBECD. […] IV formulations were filtered prior to conducting the stability studies.

The subject of data set [2] is SYO1 cells. Kind of data set: Cell cycle analysis, Click-iT Plus EdU Flow Cytometry Assay. It counts as cell-based, human. Conditions: SYO1, 200 nM or 1 μM, 8 or 13 days, compared to DMSO and lenalidomide. How it is done: (§1) Procedure: SYO1 cells were treated for 8 or 13 days with DMSO, a BRD9 degrader (Compound 1) at 200 nM or 1 μM, or an E3 ligase binder (lenalidomide) at 200 nM. Compounds were refreshed every 5 days. Cell cycle analysis was performed using the Click-iT™ Plus EdU Flow Cytometry Assay (Invitrogen). The apoptosis assay was performed using the Annexin V-FITC Apoptosis Detection Kit (Sigma A9210). Assays were performed according to the manufacturer's protocol.
(In general: In flow cytometry, cells or beads pass a laser one at a time.)

Data set [3] concerns SYO1 cells. Kind of data set: Apoptosis assay, Annexin V-FITC Apoptosis Detection Kit. Format: cell-based, human. Particulars: SYO1, 8 days, compared to DMSO controls. How it is done:
as §1

For data set [4], the system named is synovial sarcoma cell lines (SYO1, HS-SY-II, and ASKA). Kind of data set: Growth of synovial sarcoma cell lines, crystal violet day 14 (Example 3). Format: cell-based. Conditions: daily treatment. On the procedure:
(§2) Procedure: Cells were seeded into 6-well or 12-well plates and were treated daily with a BRD9 degrader (Compound 1), a bromo-domain BRD9 binder (Compound 2), E3 ligase binder (lenalidomide), DMSO, or staurosporin (positive control for cell killing), at indicated concentrations. The number of cells was optimized for each cell line. Growth media was refreshed every 5 days. By day 14, medium was removed, cells were washed with PBS, and stained using 500 μL of 0.005% (w/v) crystal violet solution in 25% (v/v) methanol for at least 1 hour at room temperature. Subsequently plates were scanned on an Odyssey CLx Imaging system.

For data set [5], the system named is synovial sarcoma cell lines (SYO1, Yamato, HS-SY-II, and ASKA). Kind of data set: Growth of synovial sarcoma cell lines, IncuCyte confluency / crystal violet / colony imaging (Example 2). It counts as cell-based. Conditions: FIGS. 4, 5, 6. On the procedure:
(§3) Cells were treated with DMSO or the BRD9 degrader, Compound 1, at indicated concentrations, and proliferation was monitored from day 7 to day 14 by measuring confluency overtime using an IncuCyte live cell analysis system (FIG. 4). Growth medium and compounds were refreshed every 3-4 days.
(§4) Cells were seeded into 12-well plates and treated with DMSO, 1 μM BRD9 inhibitor, Compound 2 (also known as BI-7273, see Martin et al, J Med Chem. 59(10):4462-4475 (2016); see structure of compound 2 below), or 1 μM BRD9 degrader, Compound 1.
(§5) The number of cells was optimized for each cell line. Growth medium and compounds were refreshed every 3-5 days. SYO1, Yamato, A549, 293T and HS-SY-II cells were fixed and stained at day 11. ASKA cells were fixed and stained at day 23. Staining was done by incubation with crystal violet solution (0.5 g Crystal Violet, 27 ml 37% Formaldehyde, 100 mL 10×PBS, 10 mL Methanol, 863 dH20 to 1 L) for 30 min followed by 3× washes with water and drying the plates for at least 24 h at room temperature. Subsequently plates were scanned on an Odyssey CLx Imaging system (FIG. 5).
(§6) Cells were seeded into 96-well ultra-low cluster plate (Costar, #7007) in 200 μL complete media and treated at day 2 with DMSO, Staurosporin, or BRD9 degrader, Compound 1, at indicated doses (FIG. 2C). Media and compounds were changed every 5 d and cell colonies were imaged at day 14.

Data set [6] deals with non-synovial control cancer cell lines (RD, HCT116, and Calu6). The experiment in a line: Growth of non-synovial control cancer cell lines, crystal violet day 14 (Example 3). It counts as cell-based. Conditions: daily treatment. On the procedure:
as §2

Data set [7] deals with non-synovial control cancer cell lines (293T, A549, G401). Kind of data set: Growth of non-synovial control cancer cell lines (Example 2). It counts as cell-based. On the procedure:
as §3, §4, §5, §6

In data set [8] the target is T1, Nanoluciferase-BRD9 fusion protein (Homo sapiens, UniProt Q9H8M2).
T1 construct: fused on or other part: 3xFLAG tag and Nanoluciferase (NLuc) as reporter handle, fused to BRD9. b953 puts them at the N-terminus
T1 sequence (Q9H8M2 134-240 limits assumed): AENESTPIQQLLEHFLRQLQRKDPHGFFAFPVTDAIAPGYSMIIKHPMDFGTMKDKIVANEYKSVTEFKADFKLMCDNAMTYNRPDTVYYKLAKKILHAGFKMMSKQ
The experiment in a line: SYO1 BRD9 NanoLuc degradation assay. It counts as cell-based. Particulars: 6 hours incubation; read-out: SYO1 BRD9-NanoLuc degradation IC50. On the procedure:
Procedure: A stable SYO-1 cell line expressing 3×FLAG-NLuc-BRD9 was generated. On day 0 cells were seeded in 30 μL media into each well of 384-well cell culture plates. The seeding density was 8000 cells/well. On day 1, cells were treated with 30 nL DMSO or 30 nL of 3-fold serially DMSO-diluted compounds (10 points in duplicates with 1 μM as final top dose). Subsequently plates were incubated for 6 hours in a standard tissue culture incubator and equilibrated at room temperature for 15 minutes. Nanoluciferase activity was measured by adding 15 μL of freshly prepared Nano-Glo Luciferase Assay Reagent (Promega N1130), shaking the plates for 10 minutes and reading the bioluminescence using an EnVision reader.
Results: The Inhibition % was calculated using the following formula: % Inhibition=100×(LumHC−LumSample)/(LumHC−LumLC). DMSO treated cells are employed as High Control (HC) and 1 μM of a known BRD9 degrader standard treated cells are employed as Low Control (LC).

SMILES strings stand for the structures. “Also recorded” adds a separate entry of the source.

Consider `COc1cc(-c2cn(C)c(=O)c3cnc(N4CCC4)cc23)cc(OC)c1CN1CCC(CN2CCC3(CC2)CN(c2ccc4c(c2)C(=O)N(C2CCC(=O)NC2=O)C4)C3)CC1` (racemic) [racemate of the free base of the compound of Formula I], for which the “dissolution at pH 3” value in data set [1] is reported as “complete dissolution”.
Regarding `COc1cc(-c2cn(C)c(=O)c3cnccc23)cc(OC)c1CN(C)CC(=O)NCCOCCOCCNc1cccc2c1C(=O)N(C1CCC(=O)NC1=O)C2=O` (centres unmarked) [Compound 1], the “cells in the S-phase of the cell cycle” value in the data set on SYO1 cells [2] was “reduced numbers of cells in the S-phase of the cell cycle”. Besides, the “early- and late-apoptotic cells” value with SYO1 cells [3] is “increased numbers of early- and late-apoptotic cells”. In addition, the “growth of synovial sarcoma cell lines” value in data set [4] was “inhibition of the growth of the cells; also recorded: most significant growth inhibition in all synovial cell lines”; in data set [5] it was “inhibition of the growth of the cells”. Further, the results for the “growth of non-synovial control cancer cell lines” value in data set [6] and in data set [7] were “did not result in inhibition of the growth” and “does not result in inhibition of the growth”, respectively.
On to `[2H]C([2H])([2H])Oc1cc(-c2cn(C)c(=O)c3cnc(N4CCC4)cc23)cc(OC([2H])([2H])[2H])c1CN1CCC(CN2CCC3(CC2)CN(c2ccc4c(c2)C(=O)N(C2CCC(=O)NC2=O)C4)C3)CC1` (centres unmarked) [Compound D2], for which, in data set [8], the DC50 came out at 0.18 nM.

These data come from patent US11767330B2, “Citrate salt, pharmaceutical compositions, and methods of making and using the same” (Foghorn Therapeutics Inc., priority 2021, dated 2023).
